Data on one compound can be found in patent US20140031431A1, “PEST-IMPERVIOUS PACKAGING MATERIAL AND PEST-CONTROL COMPOSITION” (Biopack Ltd., priority 2004, published 2014).

SMILES strings stand for the structures.

Assay [1] relates to several field and storage insects. Conditions: direct application methods; cited from earlier work.
Assay [2] concerns R. dominica adults. In words: Choice paper perforation bioassay (Examples 2-4). Format: in vivo, Rhyzopertha dominica. Here is the method: (§1) In order to evaluate the effect of isolated samples or compounds on the behavior of storage insects, three bioassays were conducted: repellency, “choice” and “non-choice” paper perforation bioassays. These bioassays were aimed to uncover two principle activities: repellency and antifeedant activities. Accordingly, the “repellency bioassay” uncovered the sample's capacity to repel insects and the “choice bioassay” uncovered the combined antifeedant and repelling activities. […] Thus, the combined data of all three bioassays enabled determining the antifeedant capacity of the sample.
The same methodology used in the non-choice test was used in this test. However, in choice test, the 28 mm diameter discs of 110 μm thick office paper were divided in half; one side was impregnated with the oil or fraction under test, while the other half was used as a blank and was treated with acetone only. In this test only a 50 microgram sample of the test oil or fraction was applied per cm^2 of paper. […] The number of perforations appearing in the two parts of the disc were counted, and a comparative analysis was performed using the Student's t test for residual effect and the differences between control and dosages applied were determined using Dunnet's test (Anon., 1989).

The test system of assay [3] is storage beetle Tribolium castaneum. Conditions: as long as 8 weeks following application; cited from earlier work.
In assay [4] the test system is R. dominica adults. The experiment in a line: Non-choice paper perforation bioassay (Examples 2-4). In kind it is in vivo, Rhyzopertha dominica. The settings on record: 24 hours. From the text:
The device used for the penetration prevention bioassay consisted of two identical open-ended glass cylinders (24 mm i.d., 28 mm o.d., 26 mm height) each with four notches spaced at equal distances around the outer rim. The impregnated office paper and a piece of wire-mesh (US standard No. 25) cut into 28 mm diameter discs were placed together on top of one cylinder. Then the second cylinder was placed over the wire-mesh and the two cylinders were pressed together and held in place by two rubber bands, secured by the notches in the cylinder rims (Navarro et al., 1998). Ten 10-15 d old R. dominica adults were placed inside the top cylinder and were kept in the test devices for […] in a temperature and humidity controlled room. All tests were run at 27° C. and 65% R.H., and there were ten replicates (devices) per test. At the end of each exposure period, the discs were examined on a black surface under a binocular microscope at 15× magnification. The number of perforations appearing as black circles were counted, and a comparative analysis was performed using the Student's t test for residual effect and the differences between control and dosages applied were determined using Dunnet's test (Anon., 1989). […]

The next assay relates to T. castaneum adults. In words: Repellency bioassay (Examples 2-4). The arrangement: key to Repellency: 0 (no effect); +; ++; +++ (strong effect). In kind it is in vivo, Tribolium castaneum. The procedure:
as §1
The propensity of the tested extracts to repel insects was determined against T. castaneum adults using the methods by Laudani et al. (1955) and McDonald et al. (1970). Accordingly, filter paper strips (Filtrak 3 HW; 10×20 cm) were treated with 4 ml of acetone solutions of turmeric extracts at 50 μg/cm^2 (or any other predetermined concentration). Each treated paper strip was attached lengthwise by Scotch tape on the reverse side, edge to edge, to two untreated 5×20 cm strips, to which acetone alone had been similarly applied. Two glass rings, 2.5 cm high and 6.4 cm i.d., were then placed over the two matched papers so that the joined edges of the papers bisected the rings. Ten adults of the test insect species were then exposed separately on the test arenas inside each glass ring, and their numbers on the treated and untreated halves were recorded every hour for the first eight hours exposure on the first day, and then in the morning of the next day two additional recordings were made for a total of 10 consecutive readings. In each test four replicates were conducted. All tests were performed at 27° C. The average count of all four replicates, each containing 10 reading periods was converted to percent repellency values, as described by Laudani et al. (1955).

For another assay, the system named is storage insects. The experiment in a line: Penetration prevention (antifeedant) effect judged from combined repellency, choice and non-choice bioassays. Conditions: at 50 μg/cm^2, 4 arbitrary classes. Details: key: 0 (no effect); +; ++; +++ (strong effect). In kind it is in vivo, Rhyzopertha dominica. Here is the method:
as §1

Take `CC(C)=CC(=O)CC(C)c1ccc(C)cc1` (stereo not drawn) [ar-turmerone, 2-methyl-6-(4-methylphenyl)-2-hepten-4-one]: the “concentration at which insecticidal” value in assay [1] is listed as “at least 500 ppm”. In the assay with R. dominica adults [2], the “Choice Test (%) (50 μg/cm^2)” value is given as 89%. In assay [3], the average repellency was 62.9% and the repellency class entry was “IV (class IV, 60.1-80%)”. In addition, in the assay on R. dominica adults [4], the “Non-choice test (%) (50 μg/cm^2)” value is −483%. The “Repellency test (%) (50 μg/cm^2)” value with T. castaneum adults (50 μg/cm^2) came to 75%. Also, the Repellency entry in the assay on T. castaneum adults (at 50 μg/cm^2, 4 arbitrary classes) is recorded as “+++”. For the same compound, the “ar-turmerone required to achieve 60% repellency” value in the assay on T. castaneum adults (estimated from concentration-repellency curve (FIG. 2)) is listed as approximately 32 μg/cm^2. For the same compound, the Penetration prevention effect with storage insects amounted to 0.
